Data as given in ChEMBL document CHEMBL5724914, “Linking interpersonal differences in gut microbiota composition and drug biotransformation activity” (2024).

How the values were obtained:
[1] = human gut metagenome, 24 h, 2 µM
[2] = human gut metagenome, 24 h, 2 µM; remark: listed apart in the source
[3] = human gut metagenome, 24 h, 2 µM; remark: listed apart in the source
[4] = (§1) The drug is tested on WLS-007 corresponding to human gut metagenome with ENA study accession number: PRJEB37062 and ENA sample accession number: ERS12561742 for biotransformation under anaerobic condition. The drug concentrations were measured over 9 timepoints collected between 0 and 24 hours of incubation by liquid-chromatography-coupled mass spectrometry (LC–MS); conditions: 2 µM
[5] = human gut metagenome, 24 h, 2 µM; remark: listed apart in the source
[6] = human gut metagenome, 24 h, 2 µM; remark: listed apart in the source
[7] = human gut metagenome, 24 h, 2 µM; remark: listed apart in the source
[8] = human gut metagenome, 24 h, 2 µM; remark: listed apart in the source
[9] = human gut metagenome, 24 h, 2 µM; remark: listed apart in the source
[10] = as §1, with “WLS-077” for “WLS-007”, “ERS12561750” for “ERS12561742”; conditions: 2 µM
[11] = human gut metagenome, 24 h, 2 µM; remark: listed apart in the source
[12] = as §1, with “Z-010” for “WLS-007”, “to” for “to human gut”, “ERS12561810” for “ERS12561742”; conditions: 2 µM
[13] = as §1, with “Z-019” for “WLS-007”, “rat” for “human”, “ERS12561818” for “ERS12561742”; conditions: 2 µM
[14] = as §1, with “Z-016” for “WLS-007”, “mouse” for “human”, “ERS12561815” for “ERS12561742”; conditions: 2 µM
[15] = human gut metagenome, 24 h, 2 µM; remark: listed apart in the source
[16] = as §1, with “WLS-170” for “WLS-007”, “ERS12561762” for “ERS12561742”; conditions: 2 µM
[17] = human gut metagenome, 24 h, 2 µM; remark: listed apart in the source
[18] = as §1, with “Z-021” for “WLS-007”, “to” for “to human gut”, “ERS12561820” for “ERS12561742”; conditions: 2 µM
[19] = as §1, with “Z-023” for “WLS-007”, “to” for “to human gut”, “ERS12561822” for “ERS12561742”; conditions: 2 µM
[20] = human gut metagenome, 24 h, 2 µM; remark: listed apart in the source
Also: call rule not given here.

Compound | Bacterial Biotransformation [1] | Bacterial Biotransformation [2] | Bacterial Biotransformation [3] | Bacterial Biotransformation [4] | Bacterial Biotransformation [5] | Bacterial Biotransformation [6] | Bacterial Biotransformation [7] | Bacterial Biotransformation [8] | Bacterial Biotransformation [9] | Bacterial Biotransformation [10] | Bacterial Biotransformation [11] | Bacterial Biotransformation [12] | Bacterial Biotransformation [13] | Bacterial Biotransformation [14] | Bacterial Biotransformation [15] | Bacterial Biotransformation [16] | Bacterial Biotransformation [17] | Bacterial Biotransformation [18] | Bacterial Biotransformation [19] | Bacterial Biotransformation [20]
CCCN1C[C@H](CSC)C[C@@H]2c3cccc4[nH]cc(c34)C[C@H]21.CS(=O)(=O)O [PERGOLIDE MESYLATE] | Compound NOT metabolized | Compound NOT metabolized | Compound NOT metabolized | Compound NOT metabolized | Compound NOT metabolized | Compound NOT metabolized | Compound NOT metabolized | Compound NOT metabolized | Compound NOT metabolized | Compound NOT metabolized | Compound NOT metabolized | Compound NOT metabolized | Compound NOT metabolized | Compound NOT metabolized | Compound NOT metabolized | Compound NOT metabolized | Compound NOT metabolized | Compound metabolized | Compound NOT metabolized | Compound NOT metabolized
CCOc1ccc2nc(S(N)(=O)=O)sc2c1 [ETHOXZOLAMIDE] | Compound NOT metabolized | Compound NOT metabolized | Compound NOT metabolized | Compound NOT metabolized | Compound NOT metabolized | Compound NOT metabolized | Compound NOT metabolized | Compound NOT metabolized | Compound NOT metabolized | Compound NOT metabolized | Compound metabolized | Compound NOT metabolized | Compound NOT metabolized | Compound NOT metabolized | Compound NOT metabolized | Compound metabolized | Compound NOT metabolized | Compound metabolized | Compound NOT metabolized | Compound NOT metabolized
CC(N)C12CC3CC(CC(C3)C1)C2 (stereo not given) [RIMANTADINE] | Compound NOT metabolized | Compound NOT metabolized | Compound NOT metabolized | Compound NOT metabolized | Compound NOT metabolized | Compound NOT metabolized | Compound NOT metabolized | Compound NOT metabolized | Compound NOT metabolized | Compound NOT metabolized | Compound NOT metabolized | Compound NOT metabolized | Compound NOT metabolized | Compound NOT metabolized | Compound NOT metabolized | Compound metabolized | Compound NOT metabolized | Compound NOT metabolized | Compound NOT metabolized | Compound NOT metabolized
CCOC(=O)C1=C[C@]2(CC)CCCN3CCc4c(n1c1ccccc41)[C@@H]32 [VINPOCETINE] | Compound metabolized | Compound metabolized | Compound metabolized | Compound NOT metabolized | Compound NOT metabolized | Compound metabolized | Compound metabolized | Compound metabolized | Compound metabolized | Compound metabolized | Compound metabolized | Compound metabolized | Compound NOT metabolized | Compound metabolized | Compound metabolized | Compound metabolized | Compound NOT metabolized | Compound NOT metabolized | Compound metabolized | Compound NOT metabolized
Nc1nnc(-c2cccc(Cl)c2Cl)c(N)n1 [LAMOTRIGINE] | Compound NOT metabolized | Compound NOT metabolized | Compound NOT metabolized | Compound NOT metabolized | Compound metabolized | Compound NOT metabolized | Compound NOT metabolized | Compound NOT metabolized | Compound NOT metabolized | Compound NOT metabolized | Compound NOT metabolized | Compound NOT metabolized | Compound NOT metabolized | Compound NOT metabolized | Compound metabolized | Compound metabolized | Compound metabolized | Compound NOT metabolized | Compound NOT metabolized | Compound NOT metabolized
CN(C)C(=O)Oc1cccc([N+](C)(C)C)c1.[Br-] [NEOSTIGMINE BROMIDE] | Compound NOT metabolized | Compound NOT metabolized | Compound NOT metabolized | Compound NOT metabolized | Compound NOT metabolized | Compound NOT metabolized | Compound NOT metabolized | Compound NOT metabolized | Compound NOT metabolized | Compound NOT metabolized | Compound NOT metabolized | Compound NOT metabolized | Compound NOT metabolized | Compound NOT metabolized | Compound NOT metabolized | Compound NOT metabolized | Compound NOT metabolized | Compound NOT metabolized | Compound NOT metabolized | Compound NOT metabolized
CCOc1cc(CC(=O)N[C@@H](CC(C)C)c2ccccc2N2CCCCC2)ccc1C(=O)O [REPAGLINIDE] | Compound NOT metabolized | Compound metabolized | Compound metabolized | Compound metabolized | Compound metabolized | Compound metabolized | Compound metabolized | Compound metabolized | Compound metabolized | Compound metabolized | Compound metabolized | Compound metabolized | Compound NOT metabolized | Compound metabolized | Compound metabolized | Compound metabolized | Compound metabolized | Compound metabolized | Compound metabolized | Compound metabolized
COC(=O)[C@H](c1ccccc1Cl)N1CCc2sccc2C1.O=S(=O)(O)O [CLOPIDOGREL BISULFATE] | Compound metabolized | Compound metabolized | Compound metabolized | Compound metabolized | Compound metabolized | Compound metabolized | Compound metabolized | Compound metabolized | Compound NOT metabolized | Compound metabolized | Compound metabolized | Compound metabolized | Compound NOT metabolized | Compound metabolized | Compound metabolized | Compound metabolized | Compound metabolized | Compound metabolized | Compound metabolized | Compound metabolized
CCN(C(C)=O)c1cccc(-c2ccnc3c(C#N)cnn23)c1 [ZALEPLON] | Compound metabolized | Compound metabolized | Compound metabolized | Compound metabolized | Compound metabolized | Compound metabolized | Compound metabolized | Compound metabolized | Compound metabolized | Compound metabolized | Compound metabolized | Compound metabolized | Compound NOT metabolized | Compound metabolized | Compound metabolized | Compound metabolized | Compound NOT metabolized | Compound NOT metabolized | Compound metabolized | Compound metabolized
